This is an account of results in patent US20210251991A1, “SUBSTITUTED 2,2'-BIPYRIMIDINYL COMPOUNDS, ANALOGUES THEREOF, AND METHODS USING SAME” (priority 2018, published 2021).

This assay has as its system HBsAg in HepG2.2.15 cells. Nature of the assay: HBsAg assay: inhibition of HBsAg in HepG2.2.15 cells (chemiluminescence immunoassay of supernatant). As to conditions: Hepatitis B virus, HepG2.2.15, 144 h, read-out: sAg EC50, HepG2.2.15 cells, supernatant collected at day 6 after exposure, HBsAg CLIA. It counts as cell-based, hepatitis B virus. In outline: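 HepG2.2.15 cells treated with serially diluted compounds (0.5% DMSO), medium and compound refreshed after 2-3 days; supernatant HBsAg measured by chemiluminescence immunoassay at day 6. EC50 from dose-response curves; viability assessed in parallel by CellTiter-Glo.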

As to `CCC1c2cc(OC)c(OC)cc2CN1c1ccnc(-c2ncccn2)n1` (centres unmarked) [Example 55, 2-([2,2′-Bipyrimidin]-4-yl)-1-ethyl-5,6-dimethoxyisoindoline], the EC50 is 0.024 µM.
Consider `CCC1c2cc(OC)c(OC)cc2CN1c1nc(-c2ncccn2)ncc1C` (centres unmarked) [Example 58, 1-Ethyl-5,6-dimethoxy-2-(5-methyl-[2,2′-bipyrimidin]-4-yl)isoindoline], for which the EC50 amounted to 0.002 µM.
For `CCC1c2cc(OC)c(OC)cc2CN1c1nc(-c2ncccn2)ncc1NC` (centres unmarked) [Example 59, 4-(1-Ethyl-5,6-dimethoxyisoindolin-2-yl)-N-methyl-[2,2′-bipyrimidin]-5-amine], the concentration for a half-maximal effect (EC50) is 0.13 µM.
Take `CCC1c2cc(OC)c(OC)cc2CN1c1nc(-c2ncccn2)ncc1Cl` (centres unmarked) [Example 60, 2-(5-Chloro-[2,2′-bipyrimidin]-4-yl)-1-ethyl-5,6-dimethoxyisoindoline]: the EC50 was found to be 0.003 µM.
For the molecule `CCC1c2cc(OC)c(OC)cc2CN1c1nc(-c2ncccn2)ncc1C1CC1` (centres unmarked) [Example 61, 2-(5-Cyclopropyl-[2,2′-bipyrimidin]-4-yl)-1-ethyl-5,6-dimethoxyisoindoline], the concentration for a half-maximal effect (EC50) came to 0.014 µM.
On to `CCC1c2cc(OC)c(OC)cc2CN1c1nc(-c2ncccn2)ncc1C(C)C` (centres unmarked) [Example 62, 1-Ethyl-2-(5-isopropyl-[2,2′-bipyrimidin]-4-yl)-5,6-dimethoxyisoindoline], for which the concentration for a half-maximal effect (EC50) amounted to 1 µM.
As for `CCC1c2cc(F)c(OC)cc2CN1c1ccnc(-c2ncccn2)n1` (centres unmarked) [Example 63, 2-([2,2′-Bipyrimidin]-4-yl)-1-ethyl-6-fluoro-5-methoxyisoindoline], the 50% effective concentration (EC50) stood at 0.021 µM.
As to `CCC1c2cc(F)c(OC)cc2CN1c1nc(-c2ncccn2)ncc1F` (centres unmarked) [Example 70, 1-Ethyl-6-fluoro-2-(5-fluoro-[2,2′-bipyrimidin]-4-yl)-5-methoxyisoindoline], the EC50 came to 0.005 µM.
As for `CCC1c2cc(F)c(O)cc2CN1c1nc(-c2ncccn2)ncc1F` (centres unmarked) [Example 75, 1-Ethyl-6-fluoro-2-(5-fluoro-[2,2′-bipyrimidin]-4-yl)isoindolin-5-ol], the figure is 0.7 µM; as for `CCC1c2cc(OC)c(F)cc2CN1c1ccnc(-c2ncccn2)n1` (centres unmarked) [Example 76, 2-([2,2′-Bipyrimidin]-4-yl)-1-ethyl-5-fluoro-6-methoxyisoindoline], 0.12 µM; as for `c1cnc(-c2nccc(N3CC4CCC3c3ccccc34)n2)nc1` (centres unmarked) [Example 79, 10-([2,2′-Bipyrimidin]-4-yl)-1,2,3,4-tetrahydro-1,4-(epiminomethano)naphthalene], 6 µM.
Regarding `Fc1cnc(-c2ncccn2)nc1N1CC2CCC1c1ccccc12` (centres unmarked) [Example 80, 10-(5-Fluoro-[2,2′-bipyrimidin]-4-yl)-1,2,3,4-tetrahydro-1,4-(epiminomethano)naphthalene], the concentration for a half-maximal effect (EC50) turned out to be 0.7 µM.
`Cc1cnc(-c2ncccn2)nc1N1CC2CCC1c1ccccc12` (centres unmarked) [Example 81, 10-(5-Methyl-[2,2′-bipyrimidin]-4-yl)-1,2,3,4-tetrahydro-1,4-(epiminomethano)naphthalene]: the EC50 was determined as 0.28 µM.
In the case of `c1cnc(-c2nccc(N3C4CCC3c3ccccc34)n2)nc1` [Example 82, 9-([2,2′-Bipyrimidin]-4-yl)-1,2,3,4-tetrahydro-1,4-epiminonaphthalene] it was 9 µM; in that of `c1cnc(-c2nccc(N3CC4CC3c3ccccc34)n2)nc1` (centres unmarked) [Example 83, 2-([2,2′-Bipyrimidin]-4-yl)-1,2,3,4-tetrahydro-1,4-methanoisoquinoline], 5 µM; in that of `COc1cc2c(cc1OC)C1CCC2N1c1cnc(-c2ncccn2)nc1` [Example 84, 9-([2,2′-Bipyrimidin]-5-yl)-6,7-dimethoxy-1,2,3,4-tetrahydro-1,4-epiminonaphthalene], 4 µM.
As to `Cc1cnc(-c2ncccn2)nc1N1C2CCC1c1ccccc12` [Example 85, 9-(5-Methyl-[2,2′-bipyrimidin]-4-yl)-1,2,3,4-tetrahydro-1,4-epiminonaphthalene], the half-maximal effective concentration (EC50) is 3 µM.
Regarding `Fc1cnc(-c2ncccn2)nc1N1C2CCC1c1ccccc12` [Example 86, 9-(5-Fluoro-[2,2′-bipyrimidin]-4-yl)-1,2,3,4-tetrahydro-1,4-epiminonaphthalene], the half-maximal effective concentration (EC50) is 2.4 µM.
Take `COc1cc2c(cc1OC)C1CCC2N1c1nc(-c2ncccn2)ncc1F` [Example 87, 9-(5-Fluoro-[2,2′-bipyrimidin]-4-yl)-6,7-dimethoxy-1,2,3,4-tetrahydro-1,4-epiminonaphthalene]: the EC50 was 1 µM.
In the case of `COc1cc2c(cc1OC)C1CCC2N1c1nc(-c2ncccn2)ncc1C` [Example 88, 6,7-Dimethoxy-9-(5-methyl-[2,2′-bipyrimidin]-4-yl)-1,2,3,4-tetrahydro-1,4-epiminonaphthalene], the EC50 stood at 2 µM.
`CCC1c2cc(OC)c(OC)cc2CN1c1nc(-c2ncccn2)nc2ccoc12` (centres unmarked) [Example 91, 4-(1-Ethyl-5,6-dimethoxyisoindolin-2-yl)-2-(pyrimidin-2-yl)furo[3,2-d]pyrimidine]: the EC50 is 0.15 µM.
`CCC1c2cc(OC)c(OC)cc2CN1c1nc(-c2ncccn2)nc2c1COC2` (centres unmarked) [Example 92, 4-(1-Ethyl-5,6-dimethoxyisoindolin-2-yl)-2-(pyrimidin-2-yl)-5,7-dihydrofuro[3,4-d]pyrimidine]: the EC50 is 0.18 µM.
As for `CCC1c2cc(OC)c(OC)cc2CN1c1nc(-c2ncccn2)nc2scnc12` (centres unmarked) [Example 93, 7-(1-Ethyl-5,6-dimethoxy-isoindolin-2-yl)-5-pyrimidin-2-yl-thiazolo[5,4-d]pyrimidine], the figure is 0.2 µM; as for `CCC1c2cc(OC)c(OC)cc2CN1c1nc(-c2ncccn2)nc2c1CCC2` (centres unmarked) [Example 94, 4-(1-Ethyl-5,6-dimethoxy-isoindolin-2-yl)-2-pyrimidin-2-yl-6,7-dihydro-5H-cyclopenta[d]pyrimidine], 0.35 µM; as for `CCC1c2cc(F)c(F)cc2CN1c1ccnc(C(=O)O)n1` (centres unmarked) [Example 95, 4-(1-Ethyl-5,6-difluoroisoindolin-2-yl)pyrimidine-2-carboxylic Acid], 2 µM.
Turning to `CCC1c2cc(F)c(OC)cc2CN1c1ccnc(C(=O)O)n1` (centres unmarked) [Example 96, 4-(1-Ethyl-6-fluoro-5-methoxyisoindolin-2-yl)pyrimidine-2-carboxylic Acid], the half-maximal effective concentration (EC50) came out at 1.2 µM.
Consider `CCC1c2cc(OC)c(OC)cc2CN1c1cnc(C(=O)O)nc1` (centres unmarked) [Example 97, 5-(1-Ethyl-5,6-dimethoxyisoindolin-2-yl)pyrimidine-2-carboxylic Acid], for which the concentration for a half-maximal effect (EC50) is 5 µM.
Take `CCC1c2cc(F)c(OC)cc2CN1c1cnc(C(=O)O)nc1` (centres unmarked) [Example 98, 5-(1-Ethyl-6-fluoro-5-methoxyisoindolin-2-yl)pyrimidine-2-carboxylic Acid]: the EC50 was 0.24 µM.
On to `CCC1c2cc(F)c(OC)cc2CN1c1cnc(C(=O)NS(C)(=O)=O)nc1` (centres unmarked) [Example 101, 5-(1-Ethyl-6-fluoro-5-methoxyisoindolin-2-yl)-N-(methylsulfonyl)pyrimidine-2-carboxamide], for which the EC50 came to 0.65 µM.
Regarding `CCC1c2cc(F)c(OC)cc2CN1c1ccnc(C(=O)NS(C)(=O)=O)n1` (centres unmarked) [Example 104, 4-(1-Ethyl-6-fluoro-5-methoxyisoindolin-2-yl)-N-(methylsulfonyl)pyrimidine-2-carboxamide], the EC50 came to 5 µM.
Regarding `CCC1c2cc(F)c(OC)cc2CN1c1cnc(C(=O)Nc2nccn2C)nc1` (centres unmarked) [Example 105, 5-(1-Ethyl-6-fluoro-5-methoxyisoindolin-2-yl)-N-(1-methyl-1H-imidazol-2-yl)pyrimidine-2-carboxamide], the concentration giving a half-maximal response (EC50) is 6 µM.
With `CCC1c2cc(F)c(OC)cc2CN1c1cnc(C(=O)Nc2ccccn2)nc1` (centres unmarked) [Example 106, 5-(1-Ethyl-6-fluoro-5-methoxyisoindolin-2-yl)-N-(pyridin-2-yl)pyrimidine-2-carboxamide], the concentration for a half-maximal effect (EC50) is 2 µM.
Consider `O=c1[nH]cccc1-c1nccc(N2CCc3cc(F)c(F)cc3C2)n1` [Example 111, 3-[4-(6,7-Difluoro-3,4-dihydro-1H-isoquinolin-2-yl)pyrimidin-2-yl]pyridin-2-ol], for which the EC50 came to 46 µM.
`CCC1c2ccc(F)c(F)c2CCN1c1cc(=O)c(C(=O)O)c[nH]1` (centres unmarked) [Example 112, 6-(1-Ethyl-5,6-difluoro-3,4-dihydro-1H-isoquinolin-2-yl)-4-hydroxy-pyridine-3-carboxylic Acid]: the EC50 is 11 µM.
`CCC1c2ccc(F)c(F)c2CCN1c1cnc(C(=O)O)nc1` (centres unmarked) [Example 113, 5-(1-Ethyl-5,6-difluoro-3,4-dihydro-1H-isoquinolin-2-yl)pyrimidine-2-carboxylic Acid]: the EC50 is 2 µM.
For the molecule `CCC1c2cc(F)c(OC)cc2CCN1c1cnc(C(N)=O)nc1` (centres unmarked) [Example 118, 5-(1-Ethyl-7-fluoro-6-methoxy-3,4-dihydro-1H-isoquinolin-2-yl)pyrimidine-2-carboxamide], the EC50 was determined as 0.52 µM.
Turning to `CCC1c2cc(F)c(F)cc2CN1c1cnc(C(N)=O)nc1` (centres unmarked) [Example 119, 5-(1-Ethyl-5,6-difluoroisoindolin-2-yl)pyrimidine-2-carboxamide], the 50% effective concentration (EC50) was 42 µM.
As for `CCC1c2cc(F)c(OC)cc2CCN1c1ccnc(C(N)=O)n1` (centres unmarked) [Example 120, 4-(1-Ethyl-7-fluoro-6-methoxy-3,4-dihydro-1H-isoquinolin-2-yl)pyrimidine-2-carboxamide], the figure is 14 µM; as for `CCC1c2cc(F)c(F)cc2CN1c1ccnc(C(N)=O)n1` (centres unmarked) [Example 121, 4-(1-Ethyl-5,6-difluoroisoindolin-2-yl)pyrimidine-2-carboxamide], 18 µM.
As to `CCC1c2ccccc2CCN1c1cnc2c(ccc3cccnc32)c1` (centres unmarked) [Example 122, 3-(1-Ethyl-3,4-dihydroisoquinolin-2(1H)-yl)-1,10-phenanthroline], the EC50 was determined as 1.2 µM.
As to `CC1c2ccc(F)c(F)c2CCN1c1cnc2c(ccc3cccnc32)c1` (centres unmarked) [Example 123, 3-(5,6-Difluoro-1-methyl-3,4-dihydroisoquinolin-2(1H)-yl)-1,10-phenanthroline], the EC50 turned out to be 0.44 µM.
